Results: patent EP4813403A1, “USE OF GLP-1R/GIPR DOUBLE-TARGET AGONIST IN PREPARING ANIMAL DRUG” (Hangzhou Zhongmeihuadong Pharmaceutical Co., Ltd., priority 2023, dated 2025)

Tests used:
[1] = molecular target: T1, human GIP Receptor (Homo sapiens, UniProt P48546); assay: In vitro binding activity to human GIP receptor ([125I]GIP displacement, crude cell membranes); settings: ratio of the Ki value of the endogenous ligand to the Ki value of the test compound; larger ratio = stronger binding
T1 construct: expressed in transfected cells
T1 sequence (P48546 22-466): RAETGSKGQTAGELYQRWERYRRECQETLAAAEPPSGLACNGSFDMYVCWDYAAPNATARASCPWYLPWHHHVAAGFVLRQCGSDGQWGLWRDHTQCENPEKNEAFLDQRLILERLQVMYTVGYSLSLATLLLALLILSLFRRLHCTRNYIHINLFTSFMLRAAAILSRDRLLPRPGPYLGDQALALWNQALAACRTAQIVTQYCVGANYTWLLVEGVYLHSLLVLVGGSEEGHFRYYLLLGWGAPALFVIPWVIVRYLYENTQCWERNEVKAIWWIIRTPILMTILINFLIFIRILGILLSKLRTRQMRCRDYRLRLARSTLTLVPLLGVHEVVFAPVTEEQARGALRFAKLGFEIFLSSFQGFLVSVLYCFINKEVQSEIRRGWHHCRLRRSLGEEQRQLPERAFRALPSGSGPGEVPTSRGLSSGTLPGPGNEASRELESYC

[2] = Pharmacokinetics following single administration in SD rats; settings: male, Sprague-Dawley, rat, in vivo, sc
Summary of the method: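 Male SD rats (230-268 g, n=3) dosed once at 50.0 nmol/kg s.c. or 25.0 nmol/kg i.v. Plasma proteins precipitated with acetonitrile containing internal standards; drug levels quantified by LC-MS/MS.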

[3] = system: db/db mice; assay: Pharmacodynamic effects in db/db mice, single subcutaneous administration (blood glucose); type: in vivo; settings: single s.c. 10 nmol/kg; for Hypoglycemic Duration: Group 2, longest time with p<0.05 vs. vehicle
Summary of the method: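 Male db/db mice aged 8-9 weeks, fed ad libitum, were grouped by initial glucose and body weight (n=6) and dosed once subcutaneously. Random blood glucose from tail tip was tracked over 0 to 120 hours against vehicle. Hypoglycemic duration is the longest time with a significant difference from vehicle (T-test, p<0.05).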

[4] = molecular target: human GLP-1R (Homo sapiens, UniProt P43220); assay: In vitro binding activity to human GLP-1 receptor ([125I]GLP-1 displacement, crude cell membranes); design: expressed in transfected cells; settings: ratio of the Ki value of the endogenous ligand to the Ki value of the test compound; larger ratio = stronger binding
Chain of human GLP-1R (P43220 24-463): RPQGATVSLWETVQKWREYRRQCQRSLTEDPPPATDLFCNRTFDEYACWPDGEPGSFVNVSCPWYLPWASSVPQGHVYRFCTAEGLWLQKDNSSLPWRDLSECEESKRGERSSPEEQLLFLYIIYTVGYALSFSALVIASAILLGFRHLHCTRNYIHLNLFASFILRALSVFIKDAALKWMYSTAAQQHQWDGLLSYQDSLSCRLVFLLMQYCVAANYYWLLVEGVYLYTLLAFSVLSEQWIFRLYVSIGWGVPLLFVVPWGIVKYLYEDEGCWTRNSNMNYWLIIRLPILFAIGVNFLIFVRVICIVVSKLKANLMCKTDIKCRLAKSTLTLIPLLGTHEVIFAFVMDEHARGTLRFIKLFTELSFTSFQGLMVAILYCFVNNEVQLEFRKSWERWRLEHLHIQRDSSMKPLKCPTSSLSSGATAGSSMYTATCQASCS

| SMILES | GIPR Ki ratio [1] | Tmax [2] [h] | half-life [2] [h] | Hypoglycemic Duration [3] [h] | GLP-1R Ki ratio [4] | inhibition of the blood glucose AUC, times of that of Tirzepatide [3] [times] |
| --- | --- | --- | --- | --- | --- | --- |
| CC[C@H](C)[C@H](NC(=O)C(C)(C)NC(=O)[C@H](Cc1ccc(O)cc1)NC(=O)[C@H](CC(=O)O)NC(=O)[C@H](CO)NC(=O)[C@@H](NC(=O)C(C)(Cc1ccccc1)NC(=O)[C@@H](NC(=O)CNC(=O)[C@H](CCC(=O)O)NC(=O)C(C)(C)NC(=O)[C@@H](N)Cc1ccc(O)cc1)[C@@H](C)O)[C@@H](C)O)C(=O)NC(C)(C)C(=O)N[C@@H](CC(C)C)C(=O)N[C@@H](CC(=O)O)C(=O)N[C@@H](CCCCN)C(=O)N[C@@H](CCC(N)=O)C(=O)N[C@@H](C)C(=O)N[C@@H](CCC(N)=O)C(=O)N[C@@H](C)C(=O)N[C@@H](CCC(=O)O)C(=O)N[C@@H](Cc1ccccc1)C(=O)N[C@H](C(=O)N[C@@H](CCCCN)C(=O)N[C@@H](Cc1c[nH]c2ccccc12)C(=O)N[C@@H](CC(C)C)C(=O)N[C@@H](CC(C)C)C(=O)N[C@@H](CCCCNC(=O)COCCOCCNC(=O)COCCOCCNC(=O)CC[C@H](NC(=O)CCCCCCCCCCCCCCCCCCCCC(=O)O)C(=O)O)C(=O)NCC(=O)NCC(=O)N1CCC[C@H]1C(=O)N[C@@H](CO)C(=O)N[C@@H](CO)C(=O)NCC(=O)N[C@@H](C)C(=O)N1CCC[C@H]1C(=O)N1CCC[C@H]1C(=O)N1CCC[C@H]1C(=O)N[C@@H](CO)C(=O)N[C@@H](CCCCN)C(N)=O)C(C)C (some centres unmarked) [Compound P017] | 0.04 | 24 | 18.7 ± 2.69 | 72 | 0.56 |  |
| CC[C@H](C)[C@H](NC(=O)C(C)(C)NC(=O)[C@H](Cc1ccc(O)cc1)NC(=O)[C@H](CC(=O)O)NC(=O)[C@H](CO)NC(=O)[C@@H](NC(=O)C(C)(Cc1ccccc1)NC(=O)[C@@H](NC(=O)CNC(=O)[C@H](CCC(=O)O)NC(=O)C(C)(C)NC(=O)[C@@H](N)Cc1ccc(O)cc1)[C@@H](C)O)[C@@H](C)O)C(=O)NC(C)(C)C(=O)N[C@@H](CC(C)C)C(=O)N[C@@H](CC(=O)O)C(=O)N[C@@H](CCCCN)C(=O)N[C@@H](CCC(N)=O)C(=O)N[C@@H](C)C(=O)N[C@@H](CCC(N)=O)C(=O)N[C@@H](C)C(=O)N[C@@H](CCC(=O)O)C(=O)N[C@@H](Cc1ccccc1)C(=O)N[C@H](C(=O)N[C@@H](CCCCN)C(=O)N[C@@H](Cc1c[nH]c2ccccc12)C(=O)N[C@@H](CC(C)C)C(=O)N[C@@H](CC(C)C)C(=O)N[C@@H](CCCCNC(=O)COCCOCCNC(=O)COCCOCCNC(=O)COCCOCCNC(=O)CC[C@H](NC(=O)CCCCCCCCCCCCCCCCCCCCC(=O)O)C(=O)O)C(=O)NCC(=O)NCC(=O)N1CCC[C@H]1C(=O)N[C@@H](CO)C(=O)N[C@@H](CO)C(=O)NCC(=O)N[C@@H](C)C(=O)N1CCC[C@H]1C(=O)N1CCC[C@H]1C(=O)N1CCC[C@H]1C(=O)N[C@@H](CO)C(=O)N[C@@H](CCCCN)C(N)=O)C(C)C (some centres unmarked) [Compound P020] | 0.05 | 24 | 17.9 ± 0.57 | 104 | 1.36 | 2.0 |
